Read-outs that look alike come from different tables or passages of the source.
Columns and labels:
[1] = tested on: S. aureus; details: ref 14; cited from earlier work
[2] = Population pharmacokinetic analysis of multidose DAL in adult patients (NONMEM); format: in vivo, human
From the text: This prospective/retrospective study was approved by Liguria Territorial Ethics Committee (DALT DRUM Study, Registration number 82/2023—DB id 13014) and carried out from February 2023 to February 2024 at Ente Ospedaliero Ospedali Galliera, Genoa, Italy. Adult patients referred to the Department of Infectious Diseases with documented or suspected Gram-positive infection who failed primary antimicrobial therapy and were prescribed a multidose DAL regimen as a rescue treatment were deemed eligible for inclusion and after signing the informed consent they were enrolled in the study.
To avoid impacting patient lifestyle and routine clinical practice, a sparse sampling strategy was also adopted for outpatients needing blood tests at the convenience of the prescribing physician.
Pharmacokinetic data were analyzed according to a nonlinear mixed-effects modeling approach using NONMEM v7.5 with Pirana modeling workbench, whilst R, version 4.3.2, was used for data formatting and graphical and statistical summaries. No data transformation was applied to PK concentrations prior to the analysis.
From an initial model (one-compartment, first-order elimination with proportional error model), different possible combinations of structural and stochastic models, as well as the inter-individual variability (IIV) of PK parameters were assessed. The effect of several covariates, previously screened for their influence on the PK parameters of the drug under study, was then included in a stepwise manner with backward elimination in the final model. Continuous covariates (age, weight, height, serum albumin, creatinine, creatine clearance, PCR) were centered on their median value and their effect was evaluated by linear and non-linear relationships. Improvement between models was judged based on a decrease in objective function value (OFV) greater than 3.84 units (p < 0.05) using the FOCE-I estimation method, whilst an increase by more than 6.64 units (p < 0.01) upon removal was adopted during backward exclusion. Additionally, during the initial model-building process outliers were detected and excluded from the analysis based on visual examination of data points identified with conditional weighted residuals (CWRES) > 3. To evaluate the influence of outliers, a sensitivity analysis was conducted in which the updated popPK model was run with and without outliers. If a statistically significant change in OFV or in the estimation of key fixed-effects parameters was observed, outliers were considered influential in the modeling steps and commented out.
The predictive performance of the PK models was assessed by appropriateness of the relative standard error (RSE < 30%), graphically by means of classical key diagnostic plots, prediction-corrected visual predictive check (pcVPC), and by inspecting bootstrap results from 1000 resampled datasets. Finally, eta-shrinkage values were calculated to identify and quantify model overfitting.

[3] = parameters: method as in earlier work; details: ref 40, 41; cited from earlier work
[4] = elimination via combination of renal and nonrenal clearance; cited from earlier work
[5] = cited from earlier work
[6] = tested on: Staphylococcus aureus, Staphylococcus epidermidis, Enterococcus spp. vancomycin-sensitive (VSE), or vancomycin-resistant Van B biofilms; details: ref 37, 38; cited from earlier work
From the text: In some instances, TDM ...

[7] = cited from earlier work; remark: listed apart in the source
[8] = bootstrap, 1000 resampled datasets
[9] = final two-compartment popPK model, allometric body weight, 30 adult patients, CLcr > 30 mL/min

In the case of Dalbavancin [listing 1 of 2 here], the “Former EUCAST clinical breakpoint of susceptibility (MIC)” value [1] is given as 0.125 µg/mL, the “CL, bootstrap median (CI 5-95%)” value [2, 8] is given as 0.0272 (0.0251–0.0294) L/h and the “Q, bootstrap median (CI 5-95%)” value [2, 8] is given as 0.0223 (0.0175–0.02936) L/h. The “V1, bootstrap median (CI 5-95%)” value [2, 8] was 3.6 (3.4–3.8) L, the “V2, bootstrap median (CI 5-95%)” value [2, 8] was 6.5 (5.6–7.5) L and the “Q, inter-compartmental clearance, estimate” value [2, 9] was 0.0225 L/h. The “V1, central volume of distribution, estimate” value [2, 9] was 3.6 L, the “V2, peripheral volume of distribution, estimate” value [2, 9] was 6.4 L and the “CL, total body clearance, estimate” value ([2]; human, in vivo, iv, 1500 mg) was 0.0273 L/h. The “EUCAST/USCAST clinical breakpoint MIC” value [3] was 0.25 µg/mL, the “Renal share of elimination (renal clearance)” value [4] was “approximately 45%” and the “Free fraction of DAL in plasma” value ([5]; as reported on the label) was 7%. For the same substance, the “Binding to plasma proteins” value ([5]; ref 5) was 93%, the “Binding to plasma proteins” value ([5]; ref 28) was 93% and the “Activity in vitro against established biofilms” value [6] was “potent activity”.
In the case of Dalbavancin [listing 2 of 2 here], the duration of sufficient tissue exposure [7] is given as 8 weeks.
